# From PubChem BioAssay (NCI)
#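 Where inhibition never reached the appropriate level, the endpoint shown equals the highest concentration tested. Otherwise, values were interpolated linearly from a five-concentration, 48-hour dose response in 96-well plates. The concentration for 50% growth inhibition is given as GI50. TGI is the concentration that stops growth completely.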
# What was measured:
# Assay in all cases: NCI tumour cell line growth inhibition, 48 h
# 786-0 renal = system: 786-0 renal
# A498 renal = system: A498 renal
# A549 NSCLC = system: A549 NSCLC
# ACHN renal = system: ACHN renal
# BT-549 breast = system: BT-549 breast
# CAKI-1 renal = system: CAKI-1 renal
# CCRF-CEM leukemia = system: CCRF-CEM leukemia
# COLO 205 colon = system: COLO 205 colon
# DU-145 prostate = system: DU-145 prostate
# EKVX NSCLC = system: EKVX NSCLC
# HCT-116 colon = system: HCT-116 colon
# HCT-15 colon = system: HCT-15 colon
# HL-60(TB) leukemia = system: HL-60(TB) leukemia
# HOP-62 NSCLC = system: HOP-62 NSCLC
# HOP-92 NSCLC = system: HOP-92 NSCLC
# HS 578T breast = system: HS 578T breast
# HT29 colon = system: HT29 colon
# IGROV1 ovarian = system: IGROV1 ovarian
# K-562 leukemia = system: K-562 leukemia
# KM12 colon = system: KM12 colon
# LOX IMVI melanoma = system: LOX IMVI melanoma
# M14 melanoma = system: M14 melanoma
# MCF7 breast = system: MCF7 breast
# MDA-MB-231 breast = system: MDA-MB-231 breast
# MDA-MB-435 = system: MDA-MB-435
# MOLT-4 leukemia = system: MOLT-4 leukemia
# NCI-H226 lung = system: NCI-H226 lung
# NCI-H460 lung = system: NCI-H460 lung
# NCI-H522 lung = system: NCI-H522 lung
# OVCAR-3 ovarian = system: OVCAR-3 ovarian
# OVCAR-4 ovarian = system: OVCAR-4 ovarian
# OVCAR-8 ovarian = system: OVCAR-8 ovarian
# PC-3 prostate = system: PC-3 prostate
# RPMI-8226 leukemia = system: RPMI-8226 leukemia
# RXF 393 renal = system: RXF 393 renal
# SF-268 CNS = system: SF-268 CNS
# SF-295 CNS = system: SF-295 CNS
# SF-539 CNS = system: SF-539 CNS
# SK-MEL-2 melanoma = system: SK-MEL-2 melanoma
# SK-MEL-28 melanoma = system: SK-MEL-28 melanoma
# SK-MEL-5 melanoma = system: SK-MEL-5 melanoma
# SK-OV-3 ovarian = system: SK-OV-3 ovarian
# SN12C renal = system: SN12C renal
# SNB-19 CNS = system: SNB-19 CNS
# SNB-75 CNS = system: SNB-75 CNS
# SR leukemia = system: SR leukemia
# SW-620 colon = system: SW-620 colon
# T-47D breast = system: T-47D breast
# TK-10 renal = system: TK-10 renal
# U251 CNS = system: U251 CNS
# UACC-257 melanoma = system: UACC-257 melanoma
# UACC-62 melanoma = system: UACC-62 melanoma
# UO-31 renal = system: UO-31 renal
compound,measurement,setting,value
N#CCN1CCn2c1nsc2=S,GI50,786-0 renal,> 100 µM
same,TGI,786-0 renal,> 100 µM
same,GI50,A498 renal,> 100 µM
same,TGI,A498 renal,> 100 µM
same,GI50,A549 NSCLC,> 100 µM
same,TGI,A549 NSCLC,> 100 µM
same,GI50,ACHN renal,> 100 µM
same,TGI,ACHN renal,> 100 µM
same,GI50,BT-549 breast,> 100 µM
same,TGI,BT-549 breast,> 100 µM
same,GI50,CAKI-1 renal,> 100 µM
same,TGI,CAKI-1 renal,> 100 µM
same,GI50,CCRF-CEM leukemia,1.6 µM
same,TGI,CCRF-CEM leukemia,> 100 µM
same,GI50,COLO 205 colon,85.5 µM
same,TGI,COLO 205 colon,> 100 µM
same,GI50,DU-145 prostate,> 100 µM
same,TGI,DU-145 prostate,> 100 µM
same,GI50,EKVX NSCLC,> 100 µM
same,TGI,EKVX NSCLC,> 100 µM
same,GI50,HCT-116 colon,> 100 µM
same,TGI,HCT-116 colon,> 100 µM
same,GI50,HCT-15 colon,> 100 µM
same,TGI,HCT-15 colon,> 100 µM
same,GI50,HL-60(TB) leukemia,20.2 µM
same,TGI,HL-60(TB) leukemia,> 100 µM
same,GI50,HOP-62 NSCLC,> 100 µM
same,TGI,HOP-62 NSCLC,> 100 µM
same,GI50,HOP-92 NSCLC,> 100 µM
same,TGI,HOP-92 NSCLC,> 100 µM
same,GI50,HS 578T breast,> 100 µM
same,TGI,HS 578T breast,> 100 µM
same,GI50,HT29 colon,> 100 µM
same,TGI,HT29 colon,> 100 µM
same,GI50,IGROV1 ovarian,> 100 µM
same,TGI,IGROV1 ovarian,> 100 µM
same,GI50,K-562 leukemia,48.2 µM
same,TGI,K-562 leukemia,> 100 µM
same,GI50,KM12 colon,88.9 µM
same,TGI,KM12 colon,> 100 µM
same,GI50,LOX IMVI melanoma,> 100 µM
same,TGI,LOX IMVI melanoma,> 100 µM
same,GI50,M14 melanoma,> 100 µM
same,TGI,M14 melanoma,> 100 µM
same,GI50,MCF7 breast,55.3 µM
same,TGI,MCF7 breast,> 100 µM
same,GI50,MDA-MB-231 breast,> 100 µM
same,TGI,MDA-MB-231 breast,> 100 µM
same,GI50,MDA-MB-435,> 100 µM
same,TGI,MDA-MB-435,> 100 µM
same,GI50,MOLT-4 leukemia,5.1 µM
same,TGI,MOLT-4 leukemia,> 100 µM
same,GI50,NCI-H226 lung,> 100 µM
same,TGI,NCI-H226 lung,> 100 µM
same,GI50,NCI-H460 lung,> 100 µM
same,TGI,NCI-H460 lung,> 100 µM
same,GI50,NCI-H522 lung,64.7 µM
same,TGI,NCI-H522 lung,> 100 µM
same,GI50,OVCAR-3 ovarian,> 100 µM
same,TGI,OVCAR-3 ovarian,> 100 µM
same,GI50,OVCAR-4 ovarian,> 100 µM
same,TGI,OVCAR-4 ovarian,> 100 µM
same,GI50,OVCAR-8 ovarian,> 100 µM
same,TGI,OVCAR-8 ovarian,> 100 µM
same,GI50,PC-3 prostate,> 100 µM
same,TGI,PC-3 prostate,> 100 µM
same,GI50,RPMI-8226 leukemia,> 100 µM
same,TGI,RPMI-8226 leukemia,> 100 µM
same,GI50,RXF 393 renal,> 100 µM
same,TGI,RXF 393 renal,> 100 µM
same,GI50,SF-268 CNS,> 100 µM
same,TGI,SF-268 CNS,> 100 µM
same,GI50,SF-295 CNS,> 100 µM
same,TGI,SF-295 CNS,> 100 µM
same,GI50,SF-539 CNS,> 100 µM
same,TGI,SF-539 CNS,> 100 µM
same,GI50,SK-MEL-2 melanoma,> 100 µM
same,TGI,SK-MEL-2 melanoma,> 100 µM
same,GI50,SK-MEL-28 melanoma,> 100 µM
same,TGI,SK-MEL-28 melanoma,> 100 µM
same,GI50,SK-MEL-5 melanoma,> 100 µM
same,TGI,SK-MEL-5 melanoma,> 100 µM
same,GI50,SK-OV-3 ovarian,> 100 µM
same,TGI,SK-OV-3 ovarian,> 100 µM
same,GI50,SN12C renal,> 100 µM
same,TGI,SN12C renal,> 100 µM
same,GI50,SNB-19 CNS,> 100 µM
same,TGI,SNB-19 CNS,> 100 µM
same,GI50,SNB-75 CNS,> 100 µM
same,TGI,SNB-75 CNS,> 100 µM
same,GI50,SR leukemia,1.09 µM
same,TGI,SR leukemia,24.1 µM
same,GI50,SW-620 colon,> 100 µM
same,TGI,SW-620 colon,> 100 µM
same,GI50,T-47D breast,> 100 µM
same,TGI,T-47D breast,> 100 µM
same,GI50,TK-10 renal,> 100 µM
same,TGI,TK-10 renal,> 100 µM
same,GI50,U251 CNS,> 100 µM
same,TGI,U251 CNS,> 100 µM
same,GI50,UACC-257 melanoma,> 100 µM
same,TGI,UACC-257 melanoma,> 100 µM
same,GI50,UACC-62 melanoma,> 100 µM
same,TGI,UACC-62 melanoma,> 100 µM
same,GI50,UO-31 renal,44.8 µM
same,TGI,UO-31 renal,> 100 µM
